# Read-outs that look alike come from different tables or passages of the source.
# B1: Cyp7b (Mus musculus) (protein)
# chain: MQGATTLDAASPGPLALLGLLFAATLLLSALFLLTRRTRRPREPPLIKGWLPYLGMALKFFKDPLTFLKTLQRQHGDTFTVFLVGKYITFVLNPFQYQYVTKNPKQLSFQKFSSRLSAKAFSVKKLLTDDDLNEDVHRAYLLLQGKPLDALLETMIQEVKELFESQLLKITDWNTERIFAFCGSLVFEITFATLYGKILAGNKKQIISELRDDFFKFDDMFPYLVSDIPIQLLRNEESMQKKIIKCLTSEKVAQMQGQSKIVQERQDLLKRYYRHDDPEIGAHHLGFLWASLANTIPAMFWAMYYILRHPEAMEALRDEIDSFLQSTGQKKGPGISVHFTREQLDSLVCLESTILEVLRLCSYSSIIREVQEDMNLSLESKSFSLRKGDFVALFPPLIHNDPEIFDAPKEFRFDRFIEDGKKKSTFFKGGKKLKTYVMPFGLGTSKCPGRYFAVNEMKLLLIMLLTYFDLEIIDRKPIGLNHSRMFLGIQHPDSAVSFRYKAKSWRS
# Experiments:
# [1] = biological target: T1, Cyp7b (Mus musculus, UniProt Q60991); experiment: Catalytic activity of Cyp7b expressed in mammalian cell lines (NADPH-dependent conversion, TLC)
# T1 sequence (Q60991 1-507): B1 chain
# From the text: To examine the catalytic activity of the enzyme Cyp7b CDNAs were expressed in mammalian cell lines.
# [2] = biological target: T2, GR (Homo sapiens, UniProt P04150); experiment: Cis-trans co-transfection assay (MMTV-LUC / pRShGR) in CHO cells; type: cell-based; details: in presence of a GR activating concentration of corticosterone, FIG. 4
# T2 construct: expressed in transfected cells; host or cells: CHO cells, calcium phosphate transfection
# T2 sequence (P04150 1-777): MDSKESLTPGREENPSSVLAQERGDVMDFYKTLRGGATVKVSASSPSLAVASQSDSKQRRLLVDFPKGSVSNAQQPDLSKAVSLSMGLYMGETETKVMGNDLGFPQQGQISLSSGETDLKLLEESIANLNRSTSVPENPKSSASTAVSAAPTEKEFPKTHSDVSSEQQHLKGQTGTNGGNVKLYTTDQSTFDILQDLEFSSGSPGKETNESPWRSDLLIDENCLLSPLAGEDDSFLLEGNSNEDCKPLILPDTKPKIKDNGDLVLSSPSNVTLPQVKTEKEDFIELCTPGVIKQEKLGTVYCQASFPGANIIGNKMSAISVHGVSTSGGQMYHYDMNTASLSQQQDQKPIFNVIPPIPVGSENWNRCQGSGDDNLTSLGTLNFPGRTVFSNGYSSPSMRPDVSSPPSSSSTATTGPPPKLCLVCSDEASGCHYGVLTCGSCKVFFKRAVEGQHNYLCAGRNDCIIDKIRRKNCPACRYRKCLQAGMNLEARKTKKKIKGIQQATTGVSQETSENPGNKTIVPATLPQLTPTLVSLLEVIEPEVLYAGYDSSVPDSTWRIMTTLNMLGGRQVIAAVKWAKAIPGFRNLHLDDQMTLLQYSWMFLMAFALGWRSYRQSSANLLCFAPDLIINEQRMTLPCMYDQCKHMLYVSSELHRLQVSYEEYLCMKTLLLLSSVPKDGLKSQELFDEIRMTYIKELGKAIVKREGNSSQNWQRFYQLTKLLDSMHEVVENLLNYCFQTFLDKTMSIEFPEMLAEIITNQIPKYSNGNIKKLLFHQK
# Method: Chinese hamster ovary (CHO) cells were maintained and transfected in Dulbecco's modification of Eagle's medium (DMEM) supplemented with 15% foetal bovine serum, 100 IU/ml penicillin, 100 μg/ml streptomycin and […] L-glutamine (all Gibco BRL, Paisley, UK).
# 24 hours prior to transfection CHO cells were plated at a density of 3×10^5/60 mm dish (Costar UK). Cells were transfected by the clacium phosphate method. Briefly, 5 μg of MMTV-LUC and 1 μg of pRShGR or 5 μg of pSV2 as a control for transfection efficiency were made up to a total of 10 μg/plate of DNA with pGEM3. 30 μl of 2.5M CaCl2 was diluted ten-fold with sterile water and 300 μl was added to the DNA. […]
# The following day the cells were washed in PBS, lysed with 0.3 ml of lysis buffer (25 mM Tris-phosphate pH 7.8, 2 mM DTT, 1% Triton X-100 and 10% glycerol), scraped, centrifuged and the supernatant assayed in duplicate in a Berthold luminometer in a total volume of 250 μl, comprising 40 μl of cell extract, 5 μl of 30 mM ATP, 100 μl of assay buffer (20 mM tricine, […] (MgCO3)4.Mg(OH)2.%H2O, 2.67 mM MgSO4, Q1 mM EDTA, 33.3 mM DTT, 0.2 mg/ml coenzyme A) and 105 μl luciferin (Promega UK) injected to initiate the reaction. Light emission was measured over 10 seconds and relative light units/microgram of protein was calculated.
# [3] = biological target: T1, Cyp7b
# [4] = biological target: T1, Cyp7b; remark: listed apart in the source
# [5] = substrate: C[C@]12CC[C@H](O)CC1=CC[C@@H]1[C@@H]2CC[C@]2(C)C(=O)CC[C@@H]12; experiment: purified protein, by the assay type; details: other: cell extracts, NADPH-dependent conversion
# [6] = relative to DHEA and pregnenolone
# [7] = cell extracts, NADPH-dependent conversion
molecule,measurement,setting,value
"C[C@]12CC[C@H](O)C[C@@H]1CC[C@@H]1[C@@H]2CC[C@]2(C)[C@@H](O)CC[C@@H]12 [5α-androstane-3β, 17β-diol]",activity of the expressed enzyme against the steroid as substrate,[1]; [6],less active
"C[C@]12CC[C@H](O)CC1=C[C@@H](O)[C@@H]1[C@@H]2CC[C@]2(C)C(=O)CC[C@@H]12 [7HD, 7α-hydroxydehydroepi-androsterone]",antagonism of corticosterone effect in activating GR-mediated transcription (fold induction of luciferase),[2],acts as an antagonist
C[C@H](CCCC(C)(C)O)[C@H]1CC[C@H]2[C@@H]3CC=C4C[C@@H](O)CC[C@]4(C)[C@H]3CC[C@]12C [25-hydroxycholesterol],conversion of labelled steroid by Cyp7b microsomes to a lower mobility form on TLC,[3],converted by the enzymes
same,activity of the expressed enzyme against the steroid as substrate,[1],less active
"C[C@]12CC[C@H](O)CC1=CC[C@@H]1[C@@H]2CC[C@]2(C)C(=O)CC[C@@H]12 [DHEA, dehydroepiandrosterone]",antagonism of corticosterone effect in activating GR-mediated transcription (fold induction of luciferase),[2],not
same,conversion of labelled steroid by Cyp7b microsomes to a lower mobility form on TLC,[3],converted
C[C@]12C[C@H](O)[C@H]3[C@@H](CCC4=CC(=O)CC[C@@]43C)[C@@H]1CC[C@@H]2C(=O)CO [corticosterone],conversion of labelled steroid by Cyp7b microsomes to a lower mobility form on TLC,[3],"at best inefficiently metabolised, if at all"
same,activity of the expressed enzyme against the steroid as substrate,[1],low to undetectable activity
C[C@]12CCC(=O)C=C1CC[C@@H]1[C@@H]2[C@@H](O)C[C@@]2(C)[C@H]1CC[C@]2(O)C(=O)CO [cortisol],conversion of labelled steroid by Cyp7b microsomes to a lower mobility form on TLC,[3],"at best inefficiently metabolised, if at all"
"C[C@]12CC[C@@H]3c4ccc(O)cc4CC[C@H]3[C@@H]1CC[C@@H]2O [estradiol, 17β-estradiol]",conversion of labelled steroid by Cyp7b microsomes to a lower mobility form on TLC,[3],converted by the enzymes
same,activity of the expressed enzyme against the steroid as substrate,[1],less active
CC(=O)[C@H]1CC[C@H]2[C@@H]3CC=C4C[C@@H](O)CC[C@]4(C)[C@H]3CC[C@]12C [pregnenolone],release of 3H into the aqueous phase,[4],efficiently released
same,conversion of labelled steroid by Cyp7b microsomes to a lower mobility form on TLC,[3],converted by the enzymes
same,Km,[1]; [7],3.6 µM
same,Vmax,[1]; [7],34 pmol/min/mg
CC(=O)[C@H]1CC[C@H]2[C@@H]3CCC4=CC(=O)CC[C@]4(C)[C@H]3CC[C@]12C [progesterone],conversion of labelled steroid by Cyp7b microsomes to a lower mobility form on TLC,[3],"at best inefficiently metabolised, if at all"
C[C@]12CC[C@H]3[C@@H](CCC4=CC(=O)CC[C@@]43C)[C@@H]1CC[C@@H]2O [testosterone],conversion of labelled steroid by Cyp7b microsomes to a lower mobility form on TLC,[3],"at best inefficiently metabolised, if at all"
same,activity of the expressed enzyme against the steroid as substrate,[1]; [6],low to undetectable activity
B1,Km,[5],13.3 µM
same,Vmax,[5],288 pmol/min/mg
